Assay results from ChEMBL document CHEMBL1275540, “Plasmid-mediated quinolone resistance determinants qnrA, qnrB, and qnrS among clinical isolates of Enterobacteriaceae in a Korean hospital” (2008).
Values after ≈ are worked out from the molar mass of the structure shown.

Legend:
Format in all cases: functional
Escherichia coli [1] = experiment: Antibacterial activity against rifampin resistant Escherichia coli RG488 receiving Klebsiella pneumoniae qnrB4 by agar dilution method
Escherichia coli [2] = experiment: Antibacterial activity against Escherichia coli J53 by agar dilution method
Escherichia coli [3] = experiment: Antibacterial activity against Escherichia coli RG488 by agar dilution method
Escherichia coli [4] = experiment: Antibacterial activity against rifampin resistant Escherichia coli RG488 receiving Klebsiella pneumoniae qnrS1 by agar dilution method
Escherichia coli [5] = experiment: Antibacterial activity against rifampin resistant Escherichia coli RG488 receiving Klebsiella pneumoniae qnrB6 by agar dilution method
Escherichia coli [6] = experiment: Antibacterial activity against rifampin resistant Escherichia coli RG488 receiving Enterobacter cloacae qnrB4 by agar dilution method
Escherichia coli [7] = experiment: Antibacterial activity against rifampin resistant Escherichia coli RG488 receiving Escherichia coli qnrB4 by agar dilution method

Compound	MIC90 (Escherichia coli [1]) [µg/mL]	MIC90 (Escherichia coli [2]) [µg/mL]	MIC90 (Escherichia coli [3]) [µg/mL]	MIC90 (Escherichia coli [4]) [µg/mL]	MIC90 (Escherichia coli [5]) [µg/mL]	MIC90 (Escherichia coli [6]) [µg/mL]	MIC90 (Escherichia coli [7]) [µg/mL]
O=C(O)c1cn(C2CC2)c2cc(N3CCNCC3)c(F)cc2c1=O [CIPROFLOXACIN]	0.125 (≈ 0.377 µM)	0.015 (≈ 0.0453 µM)	0.03 (≈ 0.0905 µM)	1 (≈ 3.02 µM)			
CCn1cc(C(=O)O)c(=O)c2ccc(C)nc21 [NALIDIXIC ACID]	8 (≈ 34.4 µM)	4 (≈ 17.2 µM)	4 (≈ 17.2 µM)	32 (≈ 138 µM)	16 (≈ 68.9 µM)	8 (≈ 34.4 µM)	16 (≈ 68.9 µM)
